Results taken from patent publication US20190367516A1 (Bayer Pharma Aktiengesellschaft, priority 2015, published 2019).

Biological target: T1, human M2 receptor (Homo sapiens, UniProt P08172)
T1 sequence (P08172 1-466): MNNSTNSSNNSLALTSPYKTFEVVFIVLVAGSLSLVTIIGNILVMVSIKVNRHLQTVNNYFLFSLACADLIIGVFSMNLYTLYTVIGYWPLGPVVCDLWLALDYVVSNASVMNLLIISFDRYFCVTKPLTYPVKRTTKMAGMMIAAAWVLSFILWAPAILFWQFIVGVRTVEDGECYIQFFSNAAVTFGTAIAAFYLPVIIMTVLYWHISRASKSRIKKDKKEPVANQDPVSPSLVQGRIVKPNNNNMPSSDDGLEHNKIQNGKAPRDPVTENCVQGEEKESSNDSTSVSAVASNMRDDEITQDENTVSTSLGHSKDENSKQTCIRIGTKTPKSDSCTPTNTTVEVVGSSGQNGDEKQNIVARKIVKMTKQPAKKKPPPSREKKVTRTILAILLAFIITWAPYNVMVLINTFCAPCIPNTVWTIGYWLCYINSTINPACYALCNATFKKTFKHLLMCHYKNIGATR
Settings: Receptor activity EC50, M2-GIRK1/4 activation test, acetylcholine at EC20; allosteric potency; in some cases mean values from two or more determinations

Compound | EC50 [nM]
O=C(NC12CC3CC(F)(CC(F)(C3)C1)C2)c1cn(-c2ccc(F)cc2F)c2nc(NCC(F)(F)F)ccc2c1=O [Example 92, 1-(2,4-Difluorophenyl)-N-(3,5-difluorotricyclo[3.3.1.1^3,7]dec-1-yl)-4-oxo-7-[(2,2,2-trifluoroethyl)amino]-1,4-dihydro-1,8-naphthyridine-3-carboxamide] | 174
CC[C@@H](NC(=O)c1cn(-c2ccc(F)cc2F)c2nc(NCC(F)(F)F)ccc2c1=O)C(F)(F)F [Example 94, 1-(2,4-Difluorophenyl)-4-oxo-N-[(2R)-1,1,1-trifluorobutan-2-yl]-7-[(2,2,2-trifluoroethyl)amino]-1,4-dihydro-1,8-naphthyridine-3-carboxamide] | 164
O=C(NC1(C(F)(F)F)CCCC1)c1cn(-c2ccc(F)cc2F)c2nc(NCC(F)(F)F)ccc2c1=O [Example 96, 1-(2,4-Difluorophenyl)-4-oxo-7-[(2,2,2-trifluoroethyl)amino]-N-[1-(trifluoromethyl)cyclopentyl]-1,4-dihydro-1,8-naphthyridine-3-carboxamide] | 134
CN(CCF)c1ccc2c(=O)c(C(=O)NC34CC5CC(CC(C5)C3)C4)cn(-c3ccc(F)cc3F)c2n1 [Example 101, 1-(2,4-Difluorophenyl)-7-[(2-fluoroethyl)(methyl)amino]-4-oxo-N-(tricyclo[3.3.1.1^3,7]dec-1-yl)-1,4-dihydro-1,8-naphthyridine-3-carboxamide] | 26
CN(CCF)c1ccc2c(=O)c(C(=O)NC34CC5CC(CC(F)(C5)C3)C4)cn(-c3ccc(F)cc3F)c2n1 [Example 102, 1-(2,4-Difluorophenyl)-7-[(2-fluoroethyl)(methyl)amino]-N-(3-fluorotricyclo[3.3.1.1^3,7]dec-1-yl)-4-oxo-1,4-dihydro-1,8-naphthyridine-3-carboxamide] | 31
CC[C@H](NC(=O)c1cn(-c2ccc(F)cc2F)c2nc(N(C)CCF)ccc2c1=O)C(F)(F)F [Example 103, 1-(2,4-Difluorophenyl)-7-[(2-fluoroethyl)(methyl)amino]-4-oxo-N-[(2S)-1,1,1-trifluorobutan-2-yl]-1,4-dihydro-1,8-naphthyridine-3-carboxamide] | 50
CCCC(NC(=O)c1cn(-c2ccc(F)cc2F)c2nc(N(C)CCF)ccc2c1=O)C(F)(F)F (centres unmarked) [Example 106, 1-(2,4-Difluorophenyl)-7-[(2-fluoroethyl)(methyl)amino]-4-oxo-N-[1,1,1-trifluoropentan-2-yl]-1,4-dihydro-1,8-naphthyridine-3-carboxamide] | 32
CC(C)C(NC(=O)c1cn(-c2ccc(F)cc2F)c2nc(N(C)CCF)ccc2c1=O)C(F)(F)F (centres unmarked) [Example 108, 1-(2,4-Difluorophenyl)-7-[(2-fluoroethyl)(methyl)amino]-4-oxo-N-[1,1,1-trifluoro-3-methylbutan-2-yl]-1,4-dihydro-1,8-naphthyridine-3-carboxamide] | 24
CN(CCF)c1ccc2c(=O)c(C(=O)NC3(C(F)(F)F)CC3)cn(-c3ccc(F)cc3F)c2n1 [Example 109, 1-(2,4-Difluorophenyl)-7-[(2-fluoroethyl)(methyl)amino]-4-oxo-N-[1-(trifluoromethyl)cyclopropyl]-1,4-dihydro-1,8-naphthyridine-3-carboxamide] | 187
CN(CCF)c1ccc2c(=O)c(C(=O)NC34CCC(F)(CC3)CC4)cn(-c3ccc(F)cc3F)c2n1 [Example 110, 1-(2,4-Difluorophenyl)-N-(4-fluorobicyclo[2.2.2]oct-1-yl)-7-[(2-fluoroethyl)(methyl)amino]-4-oxo-1,4-dihydro-1,8-naphthyridine-3-carboxamide] | 62
CN(CC(F)F)c1ccc2c(=O)c(C(=O)NC34CC5CC(CC(C5)C3)C4)cn(-c3ccc(F)cc3F)c2n1 [Example 112, 7-[(2,2-Difluoroethyl)(methyl)amino]-1-(2,4-difluorophenyl)-4-oxo-N-(tricyclo[3.3.1.1^3,7]dec-1-yl)-1,4-dihydro-1,8-naphthyridine-3-carboxamide] | 29
CN(CC(F)F)c1ccc2c(=O)c(C(=O)NC(C(F)(F)F)C(F)(F)F)cn(-c3ccc(F)cc3F)c2n1 [Example 115, 7-[(2,2-Difluoroethyl)(methyl)amino]-1-(2,4-difluorophenyl)-N-[1,1,1,3,3,3-hexafluoropropan-2-yl)-4-oxo-1,4-dihydro-1,8-naphthyridine-3-carboxamide] | 73
O=C(NC12CC3CC(CC(C3)C1)C2)c1cn(-c2ccc(F)cc2F)c2nc(N3CCC(O)(CO)CC3)ccc2c1=O [Example 116, 1-(2,4-Difluorophenyl)-7-[4-hydroxy-4-(hydroxymethyl)piperidin-1-yl]-4-oxo-N-(tricyclo[3.3.1.1^3,7]dec-1-yl)-1,4-dihydro-1,8-naphthyridine-3-carboxamide] | 59
O=C(NC12CC3CC(CC(C3)C1)C2)c1cn(-c2ccc(F)cc2F)c2nc(N3CCOC[C@H]3CO)ccc2c1=O [Example 117, 1-(2,4-Difluorophenyl)-7-[(3R)-3-(hydroxymethyl)morpholin-4-yl]-4-oxo-N-(tricyclo[3.3.1.1^3,7]dec-1-yl)-1,4-dihydro-1,8-naphthyridine-3-carboxamide] | 89
O=C(NC12CC3CC(CC(C3)C1)C2)c1cn(-c2ccc(F)cc2F)c2nc(NCC(F)F)ccc2c1=O [Example 120, 7-[(2,2-Difluoroethyl)amino]-1-(2,4-difluorophenyl)-4-oxo-N-(tricyclo[3.3.1.1^3,7]dec-1-yl)-1,4-dihydro-1,8-naphthyridine-3-carboxamide] | 62
CCCC(NC(=O)c1cn(-c2ccc(F)cc2F)c2nc(NCC(F)F)ccc2c1=O)C(F)(F)F (centres unmarked) [Example 124, 7-[(2,2-Difluoroethyl)amino]-1-(2,4-difluorophenyl)-4-oxo-N-[1,1,1-trifluoropentan-2-yl]-1,4-dihydro-1,8-naphthyridine-3-carboxamide] | 155
O=C(NC12CC3CC(CC(C3)C1)C2)c1cn(-c2ccc(F)cc2F)c2nc(N3CCOCC3)ccc2c1=O [Example 136, 1-(2,4-Difluorophenyl)-7-(morpholin-4-yl)-4-oxo-N-(tricyclo[3.3.1.1^3,7]dec-1-yl)-1,4-dihydro-1,8-naphthyridine-3-carboxamide] | 24

Continued, values first:

EC50 [nM] | Compound
180 | O=C(NC(C(F)(F)F)C(F)(F)F)c1cn(-c2ccc(F)cc2F)c2nc(NCC(F)F)ccc2c1=O [Example 126, 7-[(2,2-Difluoroethyl)amino]-1-(2,4-difluorophenyl)-N-(1,1,1,3,3,3-hexafluoropropan-2-yl)-4-oxo-1,4-dihydro-1,8-naphthyridine-3-carboxamide]
45 | O=C(NC12CC3CC(CC(C3)C1)C2)c1cn(-c2ccc(F)cc2F)c2nc(N3CCSC3)ccc2c1=O [Example 129, 1-(2,4-Difluorophenyl)-4-oxo-7-(1,3-thiazolidin-3-yl)-N-(tricyclo[3.3.1.1^3,7]dec-1-yl)-1,4-dihydro-1,8-naphthyridine-3-carboxamide]
113 | O=C(NC12CC3CC(CC(C3)C1)C2)c1cn(-c2ccc(F)cc2F)c2nc(N3CCS(=O)(=O)C3)ccc2c1=O [Example 130, 1-(2,4-Difluorophenyl)-7-(1,1-dioxido-1,3-thiazolidin-3-yl)-4-oxo-N-(tricyclo[3.3.1.1^3,7]dec-1-yl)-1,4-dihydro-1,8-naphthyridine-3-carboxamide]
157 | O=C(NC12CC3CC(CC(C3)C1)C2)c1cn(-c2ccc(F)cc2F)c2nc(N3CC[S+]([O-])C3)ccc2c1=O (centres unmarked) [Example 131, 1-(2,4-Difluorophenyl)-7-(1-oxido-1,3-thiazolidin-3-yl)-4-oxo-N-(tricyclo[3.3.1.1^3,7]dec-1-yl)-1,4-dihydro-1,8-naphthyridine-3-carboxamide]
19 | CC(C)C[C@@H](NC(=O)c1cn(-c2ccc(F)cc2F)c2nc(N(C)C)ccc2c1=O)C(F)(F)F [Example 133, 1-(2,4-Difluorophenyl)-7-(dimethylamino)-4-oxo-N-[(2R)-1,1,1-trifluoro-4-methylpentan-2-yl]-1,4-dihydro-1,8-naphthyridine-3-carboxamide]
32 | CC(C)[C@H](NC(=O)c1cn(-c2ccc(F)cc2F)c2nc(N(C)C)ccc2c1=O)C(F)(F)F [Example 134, 1-(2,4-Difluorophenyl)-7-(dimethylamino)-4-oxo-N-[(2S)-1,1,1-trifluoro-3-methylbutan-2-yl]-1,4-dihydro-1,8-naphthyridine-3-carboxamide]
16 | CC(C)C[C@H](NC(=O)c1cn(-c2ccc(F)cc2F)c2nc(N(C)C)ccc2c1=O)C(F)(F)F [Example 137, 1-(2,4-Difluorophenyl)-7-(dimethylamino)-4-oxo-N-[(2S)-1,1,1-trifluoro-4-methylpentan-2-yl]-1,4-dihydro-1,8-naphthyridine-3-carboxamide]
85 | CN(C)c1ccc2c(=O)c(C(=O)NC(C(F)(F)F)C(F)(F)F)cn(-c3ccc(F)cc3F)c2n1 [Example 149, 1-(2,4-Difluorophenyl)-7-(dimethylamino)-N-(1,1,1,3,3,3-hexafluoropropan-2-yl)-4-oxo-1,4-dihydro-1,8-naphthyridine-3-carboxamide]
23 | CN(C)c1ccc2c(=O)c(C(=O)NC3(C(F)(F)F)CCCC3)cn(-c3ccc(F)cc3F)c2n1 [Example 151, 1-(2,4-Difluorophenyl)-7-(dimethylamino)-4-oxo-N-[1-(trifluoromethyl)cyclopentyl]-1,4-dihydro-1,8-naphthyridine-3-carboxamide]
